Results: US20210261553A1, “FUSED TETRAZOLES AS LRRK2 INHIBITORS” (E-SCAPE Bio, Inc., priority 2018, published 2021)

How the values were obtained:
[1] = target: T1, Recombinant G2019S-LRRK2 protein (Homo sapiens, UniProt Q5S007, G2019S); experiment: LRRK2 kinase activity assay (LanthaScreen TR-FRET), G2019S mutant; format: biochemical; details: 400 nM LRRKtide, 25 μM ATP, 60 min at room temperature
T1 construct: purchased Life Technologies PV4881
Description: (§1) LRRK2 kinase activity was measured using a LanthaScreen™ Kinase Activity Assay from ThermoFisher Scientific. Recombinant wild type or G2019S-LRRK2 protein (Life Technologies, PR8604B or PV4881, respectively), was incubated with a fluorescein-labeled peptide substrate called LRRKtide that is based upon ezrin/radixin/moesin (ERM) (Life Technologies, PV4901) in the presence of ATP and serially diluted compound. After an incubation period of 1 hr, the phosphotransferase activity was stopped and a terbium-labelled anti-pERM antibody (Life Technologies, PV4899) was added to detect the phosphorylation of LRRKtide by measuring the time resolved-Forster resonant energy transfer (TR-FRET) signal from the terbium label on the antibody to the fluorescein tag on LRRKtide, expressed as the 520 nm/495 nm emission ratio. Compound-dependent inhibition of the TR-FRET signal was used to generate a concentration-response curve for IC50 determination.
(§2) The assay was carried out under the following protocol conditions: 1 mM compound in DMSO was serially diluted 1:3, 11 points in DMSO with a Biomek FX and 0.1 μL of the diluted compound was subsequently stamped into the assay plate (384-well format Lumitrac 200, Greiner, 781075) with an Echo Labcyte such that the final compound concentration in the assay was 10 μM to […]. Subsequently, 5 μL of 2× kinase solution (2.9 nM final concentration) was added to the assay plate in assay buffer composed of 50 mM Tris pH 8.5 (Sigma, T6791), 5 mM MgCl2 (Fluka, 63020), 1 mM EGTA (Sigma, E3889), 0.01% BRU-35 (Sigma, P1254) and 2 mM DTT. The reaction was started by addition of 2×ATP/LRRKtide solution in assay buffer such that the final concentration was 400 nM LRRKtide and 25 μM ATP. After 60 min incubation at room temperature, the reaction was stopped by addition of […] containing a final concentration of 2 nM anti-pERM antibody and […]. After a 30 min incubation at RT, the TR-FRET signal was measured on a Wallac 2104 EnVision® multilabel reader at an excitation wavelength of 340 nm and reading emission at 520 nm and 495 nm. The ratio of the 520 nm and 495 nm emission was used to analyze the data.

[2] = target: T2, Recombinant wild type LRRK2 protein (Homo sapiens, UniProt Q5S007); experiment: LRRK2 kinase activity assay (LanthaScreen TR-FRET), wild type; format: biochemical; details: 400 nM LRRKtide, 25 μM ATP, 60 min at room temperature; read-out: LRRK2 WT IC50
T2 construct: purchased Life Technologies PR8604B
Description: as §1, §2

T1 sequence (Q5S007 970-2527 G2019S limits assumed): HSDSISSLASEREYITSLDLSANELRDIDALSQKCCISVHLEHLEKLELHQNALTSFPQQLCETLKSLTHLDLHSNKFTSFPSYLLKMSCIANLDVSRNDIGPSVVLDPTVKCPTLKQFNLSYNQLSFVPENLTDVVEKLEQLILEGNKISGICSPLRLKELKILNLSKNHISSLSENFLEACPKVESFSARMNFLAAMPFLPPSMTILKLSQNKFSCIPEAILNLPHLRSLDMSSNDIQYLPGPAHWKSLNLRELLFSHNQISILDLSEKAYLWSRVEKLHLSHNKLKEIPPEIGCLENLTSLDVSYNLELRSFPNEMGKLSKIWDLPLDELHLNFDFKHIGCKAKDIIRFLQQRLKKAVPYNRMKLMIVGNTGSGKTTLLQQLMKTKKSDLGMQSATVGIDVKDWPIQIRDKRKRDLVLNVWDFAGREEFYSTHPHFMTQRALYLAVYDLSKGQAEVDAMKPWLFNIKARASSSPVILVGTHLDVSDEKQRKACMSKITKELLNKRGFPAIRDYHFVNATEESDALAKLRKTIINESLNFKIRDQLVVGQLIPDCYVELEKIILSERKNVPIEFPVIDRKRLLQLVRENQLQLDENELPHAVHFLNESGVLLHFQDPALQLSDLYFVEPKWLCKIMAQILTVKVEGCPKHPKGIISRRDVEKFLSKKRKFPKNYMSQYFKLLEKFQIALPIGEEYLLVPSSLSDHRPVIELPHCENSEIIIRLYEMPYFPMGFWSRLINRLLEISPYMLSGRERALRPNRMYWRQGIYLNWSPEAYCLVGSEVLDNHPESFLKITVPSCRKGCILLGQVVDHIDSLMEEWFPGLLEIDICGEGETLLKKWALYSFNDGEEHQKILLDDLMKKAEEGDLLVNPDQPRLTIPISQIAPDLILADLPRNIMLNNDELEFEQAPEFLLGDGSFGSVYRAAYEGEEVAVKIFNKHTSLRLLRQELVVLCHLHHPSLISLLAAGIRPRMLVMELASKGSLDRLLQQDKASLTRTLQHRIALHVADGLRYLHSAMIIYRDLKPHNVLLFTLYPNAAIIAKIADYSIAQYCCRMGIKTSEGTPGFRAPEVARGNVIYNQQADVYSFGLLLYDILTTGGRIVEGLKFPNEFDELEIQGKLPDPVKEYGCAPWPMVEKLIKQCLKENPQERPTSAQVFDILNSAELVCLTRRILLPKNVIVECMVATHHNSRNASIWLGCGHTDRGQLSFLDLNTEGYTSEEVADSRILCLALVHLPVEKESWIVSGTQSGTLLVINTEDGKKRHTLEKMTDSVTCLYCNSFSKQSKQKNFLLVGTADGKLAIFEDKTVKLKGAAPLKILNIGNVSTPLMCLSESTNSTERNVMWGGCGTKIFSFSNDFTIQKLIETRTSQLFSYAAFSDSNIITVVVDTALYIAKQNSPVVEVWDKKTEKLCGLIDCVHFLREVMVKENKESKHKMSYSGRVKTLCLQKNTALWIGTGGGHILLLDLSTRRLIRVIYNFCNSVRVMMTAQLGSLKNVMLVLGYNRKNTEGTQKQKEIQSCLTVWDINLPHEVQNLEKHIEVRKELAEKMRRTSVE
T2 sequence (Q5S007 whole entry): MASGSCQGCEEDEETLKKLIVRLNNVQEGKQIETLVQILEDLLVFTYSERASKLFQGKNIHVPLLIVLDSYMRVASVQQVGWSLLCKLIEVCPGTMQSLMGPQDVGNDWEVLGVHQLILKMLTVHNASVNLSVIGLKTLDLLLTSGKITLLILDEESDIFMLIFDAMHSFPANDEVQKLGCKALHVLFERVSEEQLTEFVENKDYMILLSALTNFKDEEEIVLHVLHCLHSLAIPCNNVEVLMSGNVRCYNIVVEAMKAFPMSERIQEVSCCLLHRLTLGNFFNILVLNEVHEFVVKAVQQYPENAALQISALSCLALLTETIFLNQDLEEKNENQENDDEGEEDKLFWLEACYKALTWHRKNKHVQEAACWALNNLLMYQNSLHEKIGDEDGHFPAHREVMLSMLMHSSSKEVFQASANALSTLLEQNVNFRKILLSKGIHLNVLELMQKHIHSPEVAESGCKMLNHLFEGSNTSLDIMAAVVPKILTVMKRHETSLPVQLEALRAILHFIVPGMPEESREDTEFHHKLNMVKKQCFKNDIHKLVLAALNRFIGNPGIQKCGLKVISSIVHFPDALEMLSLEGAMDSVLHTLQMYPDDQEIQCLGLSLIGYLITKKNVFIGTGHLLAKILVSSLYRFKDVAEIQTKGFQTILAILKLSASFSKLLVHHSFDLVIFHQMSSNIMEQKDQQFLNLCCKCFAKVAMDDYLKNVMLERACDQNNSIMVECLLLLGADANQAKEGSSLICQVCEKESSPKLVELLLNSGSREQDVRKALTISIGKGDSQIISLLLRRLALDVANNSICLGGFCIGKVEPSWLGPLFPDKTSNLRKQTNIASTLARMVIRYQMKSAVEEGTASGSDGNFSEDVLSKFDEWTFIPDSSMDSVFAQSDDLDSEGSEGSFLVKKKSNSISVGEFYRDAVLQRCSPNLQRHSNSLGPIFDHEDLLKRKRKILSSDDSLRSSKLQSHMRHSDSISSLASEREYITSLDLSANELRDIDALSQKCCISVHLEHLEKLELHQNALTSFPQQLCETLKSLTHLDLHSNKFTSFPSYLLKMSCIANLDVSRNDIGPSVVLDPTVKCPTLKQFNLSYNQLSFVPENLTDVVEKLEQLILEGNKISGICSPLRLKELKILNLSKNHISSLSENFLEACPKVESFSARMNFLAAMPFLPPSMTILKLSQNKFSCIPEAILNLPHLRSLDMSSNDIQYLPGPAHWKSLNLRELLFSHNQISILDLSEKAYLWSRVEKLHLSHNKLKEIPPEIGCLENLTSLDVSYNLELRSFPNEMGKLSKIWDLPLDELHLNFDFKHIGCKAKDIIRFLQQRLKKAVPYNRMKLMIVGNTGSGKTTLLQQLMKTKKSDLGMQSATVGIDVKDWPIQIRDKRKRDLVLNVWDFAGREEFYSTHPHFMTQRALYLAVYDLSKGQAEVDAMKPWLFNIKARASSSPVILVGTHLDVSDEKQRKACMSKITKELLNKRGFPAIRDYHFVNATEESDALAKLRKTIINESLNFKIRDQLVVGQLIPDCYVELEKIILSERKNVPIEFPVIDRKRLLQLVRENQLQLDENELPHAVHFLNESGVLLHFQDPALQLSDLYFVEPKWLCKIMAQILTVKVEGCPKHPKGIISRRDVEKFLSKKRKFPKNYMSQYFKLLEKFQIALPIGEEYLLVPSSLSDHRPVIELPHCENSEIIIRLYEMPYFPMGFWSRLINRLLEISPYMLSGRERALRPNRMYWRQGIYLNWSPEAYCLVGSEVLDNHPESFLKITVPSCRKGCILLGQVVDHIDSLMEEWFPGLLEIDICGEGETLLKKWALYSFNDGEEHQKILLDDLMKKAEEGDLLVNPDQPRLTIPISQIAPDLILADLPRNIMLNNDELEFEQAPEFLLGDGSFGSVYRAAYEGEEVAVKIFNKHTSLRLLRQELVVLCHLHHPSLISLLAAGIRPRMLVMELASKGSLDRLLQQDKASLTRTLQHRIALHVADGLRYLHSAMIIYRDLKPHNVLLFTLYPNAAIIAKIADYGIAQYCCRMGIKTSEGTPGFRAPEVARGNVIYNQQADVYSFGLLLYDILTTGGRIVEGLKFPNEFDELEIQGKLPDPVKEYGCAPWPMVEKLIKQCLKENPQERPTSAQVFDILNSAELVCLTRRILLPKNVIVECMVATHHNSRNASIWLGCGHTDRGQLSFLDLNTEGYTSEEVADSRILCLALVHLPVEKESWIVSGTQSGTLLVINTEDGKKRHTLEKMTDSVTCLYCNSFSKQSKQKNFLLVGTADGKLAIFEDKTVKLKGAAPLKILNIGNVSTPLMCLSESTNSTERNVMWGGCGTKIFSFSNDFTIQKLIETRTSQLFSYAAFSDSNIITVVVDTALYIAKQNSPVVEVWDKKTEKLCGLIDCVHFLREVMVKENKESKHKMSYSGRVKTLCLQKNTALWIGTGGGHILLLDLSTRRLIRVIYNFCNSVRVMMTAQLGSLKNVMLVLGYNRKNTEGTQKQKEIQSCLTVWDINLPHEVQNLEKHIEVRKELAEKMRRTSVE

IC50 [1] [nM]	IC50 [2] [nM]	SMILES
1000 to 10000	1000 to 10000	CC1=C(C(=O)Nc2ccc3cn[nH]c3c2)Cn2nnnc2N1C [Example 3, N-(1H-indazol-6-yl)-4,5-dimethyl-4H,7H-[1,2,3,4]tetrazolo[1,5-a]pyrimidine-6-carboxamide]
≤ 100	≤ 100	CC1=C(C(=O)Nc2ccc3[nH]nc(-c4ccnc(N5CCOCC5)c4)c3c2)Cn2nnnc2N1C [Example 7, 4,5-Dimethyl-N-(3-(2-morpholinopyridin-4-yl)-1H-indazol-5-yl)-4,7-dihydrotetrazolo[1,5-a]pyrimidine-6-carboxamide]
≤ 100	100 to 1000	CC1=C(C(=O)Nc2ccc3[nH]ncc3c2)Cn2nnnc2N1C(=O)N(C)C [Example 12, N^6-(1H-indazol-5-yl)-N^4,N^4,5-trimethyltetrazolo[1,5-a]pyrimidine-4,6(7H)-dicarboxamide]
1000 to 10000	1000 to 10000	CC1=C(C(=O)Nc2ccc3[nH]ncc3c2)Cn2nnnc2N1CCN1CCOCC1 [Example 4, N-(1H-Indazol-5-yl)-5-methyl-4-[2-(morpholin-4-yl)ethyl]-4H,7H-[1,2,3,4]tetrazolo[1,5-a]pyrimidine-6-carboxamide]
100 to 1000	1000 to 10000	CC1=C(C(=O)Nc2ccc3[nH]ncc3c2)C(C)n2nnnc2N1C (single isomer, unassigned) [Example 2b]
1000 to 10000	1000 to 10000	CC1=C(C(=O)Nc2cc3c[nH]nc3cc2C(N)=O)Cn2nnnc2N1C [Example 20, N-(6-carbamoyl-2H-indazol-5-yl)-4,5-dimethyl-4,7-dihydrotetrazolo[1,5-a]pyrimidine-6-carboxamide]
100 to 1000	100 to 1000	CC1=C(C(=O)Nc2cc3c[nH]nc3cc2F)Cn2nnnc2N1C [Example 19, N-(6-fluoro-2H-indazol-5-yl)-4,5-dimethyl-4,7-dihydrotetrazolo[1,5-a]pyrimidine-6-carboxamide]
100 to 1000	1000 to 10000	CC1=C(C(=O)Nc2ccc3[nH]ncc3c2F)Cn2nnnc2N1C [Example 14, N-(4-fluoro-1H-indazol-5-yl)-4,5-dimethyl-4,7-dihydrotetrazolo[1,5-a]pyrimidine-6-carboxamide]
100 to 1000	100 to 1000	CCC1=C(C(=O)Nc2ccc3[nH]ncc3c2)Cn2nnnc2N1C [Example 5, 5-Ethyl-N-(1H-indazol-5-yl)-4-methyl-4H,7H-[1,2,3,4]tetrazolo[1,5-a]pyrimidine-6-carboxamide]
≤ 100	≤ 100	CC1=C(C(=O)Nc2ccc3[nH]nc(-c4ccnc(N5CCOCC5)c4)c3c2)[C@@H](C)n2nnnc2N1C (single isomer, unassigned) [Example 24a]
≤ 100	100 to 1000	CCC1C(C(=O)Nc2ccc3[nH]ncc3c2)=C(C)N(C)c2nnnn21 (single isomer, unassigned) [Example 8b]
1000 to 10000	1000 to 10000	CC1=C(C(=O)Nc2cc3c[nH]nc3cc2N)Cn2nnnc2N1C [Example 21, N-(6-amino-2H-indazol-5-yl)-4,5-dimethyl-4,7-dihydrotetrazolo[1,5-a]pyrimidine-6-carboxamide]
≤ 100	100 to 1000	CCC1C(C(=O)Nc2ccc3[nH]ncc3c2)=C(C)N(C)c2nnnn21 (racemic) [Example 8, 7-Ethyl-N-(1H-indazol-5-yl)-4,5-dimethyl-4H,7H-[1,2,3,4]tetrazolo[1,5-a]pyrimidine-6-carboxamide]
1000 to 10000	> 10000	CC1=C(C(=O)Nc2ccc3[nH]c(=O)oc3c2)Cn2nnnc2N1C [Example 30, 4,5-dimethyl-N-(2-oxo-2,3-dihydrobenzo[d]oxazol-6-yl)-4,7-dihydrotetrazolo[1,5-a]pyrimidine-6-carboxamide]
≤ 100	100 to 1000	CC1=C(C(=O)Nc2ccc3[nH]ncc3c2)C(C)n2nnnc2N1C (stereo not shown) [Example 2, N-(1H-indazol-5-yl)-4,5,7-trimethyl-4H,7H-[1,2,3,4]tetrazolo[1,5-a]pyrimidine-6-carboxamide]
1000 to 10000	> 10000	CC(=O)Nc1[nH]nc2ccc(NC(=O)C3=C(C)N(C)c4nnnn4C3)cc12 [Example 28, N-(3-acetamido-2H-indazol-5-yl)-4,5-dimethyl-4,7-dihydrotetrazolo[1,5-a]pyrimidine-6-carboxamide]

IC50 [1] [nM]	IC50 [2] [nM]	SMILES
≤ 100	100 to 1000	CC1=C(C(=S)Nc2ccc3[nH]ncc3c2)Cn2nnnc2N1C [Example 15, N-(1H-indazol-5-yl)-4,5-dimethyl-4,7-dihydrotetrazolo[1,5-a]pyrimidine-6-carbothioamide]
≤ 100	≤ 100	CC1=C(C(=O)Nc2ccc3[nH]nc(-c4ccncc4)c3c2)Cn2nnnc2N1C [Example 6, 4,5-dimethyl-N-(3-(pyridin-4-yl)-1H-indazol-5-yl)-4,7-dihydrotetrazolo[1,5-a]pyrimidine-6-carboxamide]
1000 to 10000	> 10000	COc1cc2n[nH]cc2cc1NC(=O)C1=C(C)N(C)c2nnnn2C1 [Example 17, N-(6-methoxy-2H-indazol-5-yl)-4,5-dimethyl-4,7-dihydrotetrazolo[1,5-a]pyrimidine-6-carboxamide]
≤ 100	≤ 100	CC1=C(C(=O)Nc2ccc3[nH]ncc3c2)Cn2nnnc2N1c1ccccc1 [Example 13, N-(1H-indazol-5-yl)-5-methyl-4-phenyl-4,7-dihydrotetrazolo[1,5-a]pyrimidine-6-carboxamide]
≤ 100	100 to 1000	CC1=C(C(=O)Nc2cc3cn[nH]c3cn2)C(C)n2nnnc2N1C (racemic) [Example 23, 4,5,7-trimethyl-N-(1H-pyrazolo[3,4-c]pyridin-5-yl)-4,7-dihydrotetrazolo[1,5-a]pyrimidine-6-carboxamide]
≤ 100	≤ 100	CC1=C(C(=O)Nc2ccc3[nH]ncc3c2)C(C)n2nnnc2N1C (single isomer, unassigned) [Example 2a]
≤ 100	≤ 100	CC1=C(C(=O)Nc2ccc3[nH]nc(-c4ccc(S(N)(=O)=O)cc4)c3c2)Cn2nnnc2N1C [Example 11, 4,5-Dimethyl-N-(3-(4-sulfamoylphenyl)-1H-indazol-5-yl)-4,7-dihydrotetrazolo[1,5-a]pyrimidine-6-carboxamide]
≤ 100	1000 to 10000	CC1=C(C(=O)Nc2ccc3[nH]ncc3c2)C(C)(C)n2nnnc2N1C [Example 26, N-(2H-indazol-5-yl)-4,5,7,7-tetramethyl-4,7-dihydrotetrazolo[1,5-a]pyrimidine-6-carboxamide]
≤ 100	≤ 100	CC1=C(C(=O)Nc2ccc3[nH]nc(-c4cc(N5CCOCC5)ncn4)c3c2)Cn2nnnc2N1C [Example 9, 4,5-Dimethyl-N-(3-(6-morpholinopyrimidin-4-yl)-1H-indazol-5-yl)-4,7-dihydrotetrazolo[1,5-a]pyrimidine-6-carboxamide]
1000 to 10000	–	CC1=C(C(=O)Nc2ccc3c(c2)CC(=O)N3)Cn2nnnc2N1C [Example 29, 4,5-dimethyl-N-(2-oxoindolin-5-yl)-4,7-dihydrotetrazolo[1,5-a]pyrimidine-6-carboxamide]
100 to 1000	1000 to 10000	CC1=C(C(=O)Nc2ccc3[nH]c(=O)[nH]c3c2)Cn2nnnc2N1C [Example 31, 4,5-dimethyl-N-(2-oxo-2,3-dihydro-1H-benzo[d]imidazol-5-yl)-4,7-dihydrotetrazolo[1,5-a]pyrimidine-6-carboxamide]
≤ 100	100 to 1000	CC1=C(C(=O)Nc2ccc3[nH]nc(C(N)=O)c3c2)Cn2nnnc2N1C [Example 18, N-(3-carbamoyl-2H-indazol-5-yl)-4,5-dimethyl-4,7-dihydrotetrazolo[1,5-a]pyrimidine-6-carboxamide]
≤ 100	100 to 1000	CCC1C(C(=O)Nc2ccc3[nH]ncc3c2)=C(C)N(C)c2nnnn21 (single isomer, unassigned) [Example 8a]
≤ 100	≤ 100	CC1=C(C(=O)Nc2ccc3[nH]nc(-c4ccnc(N5CCOCC5)c4)c3c2)[C@H](C)n2nnnc2N1C (single isomer, unassigned) [Example 24b]
1000 to 10000	1000 to 10000	CC1=C(C(=O)Nc2cc3c[nH]nc3cc2N)C(C)n2nnnc2N1C (stereo not shown) [Example 25, N-(6-amino-2H-indazol-5-yl)-4,5,7-trimethyl-4,7-dihydrotetrazolo[1,5-a]pyrimidine-6-carboxamide]
